# Experimental data: paper PMC6105804, “In Vitro and In Vivo Evaluation of APX001A/APX001 and Other Gwt1 Inhibitors against Cryptococcus” (Antimicrobial Agents and Chemotherapy, 2018)
# What was measured:
# C. neoformans = system: C. neoformans; set-up: method as in PMID 15078612; settings: U.S. isolates; cited from earlier work
# C. neoformans strain H99 [1] = assay: Murine cryptococcal meningitis model with ABT pretreatment (preliminary experiment); type: in vivo, Cryptococcus neoformans; settings: 7 days
# Description: In a preliminary experiment, the efficacies of APX001, APX2096, and APX2097 were evaluated in the disseminated model of CM (n = 5 mice/cohort). ABT at 100 mg/kg was administered orally to male CD-1 mice 2 h prior to APX compound administration. Mice were injected with 6.9 × 10^4 CFU of C. neoformans strain H99 per mouse via the lateral tail vein at time zero. Treatment with each prodrug was initiated at about 1 h postinfection by i.p. administration and continued daily for 7 days, with 100-mg/kg ABT being administered orally 2 h prior to each APX compound dose.
# (§1) ABT at 100 mg/kg was administered orally to male CD-1 mice at 2 h prior to each APX compound dose. Mice were injected with 6.9 × 10^4 CFU of C. neoformans strain H99 per mouse via the lateral tail vein at time zero. Treatment with the APX compound was initiated at about 1 h postinfection by i.p. administration and continued for 7 days, with 100-mg/kg ABT being administered orally 2 h prior to each APX compound dose. […] Fungal burden data were log10 transformed and evaluated using Kruskal-Wallis tests with Dunn's multiple-comparison test for post hoc analysis (Prism software, v5; GraphPad Software, Inc., San Diego, CA). A P value of ≤0.05 was considered statistically significant (*, P ≤ 0.05; **, P ≤ 0.01). The 95% confidence interval (CI) is presented.
# (§2) C. neoformans strain H99 was grown in yeast extract-peptone-dextrose broth at 30°C on a shaker (220 rpm) for 24 h, centrifuged (1,980 relative centrifugal force), and washed twice in phosphate-buffered saline (PBS), resuspended in PBS, and quantified by hemacytometric count. Male CD-1 mice were infected with ∼5 × 10^4 CFU per mouse via lateral tail vein injection of 100 μl. Mice were weighed, and treatment was begun within 1 h after infection. Treatments were administered daily for 7 days. Mice were weighed daily and observed for acute and chronic adverse symptoms. Mice were sacrificed on day 8, and the brain and left lung were homogenized and cultured for quantitative determination of the tissue burden (number of CFU per gram of tissue). Tissues were homogenized for 25 s in 1 ml phosphate-buffered saline using two 6.5-mm steel beads and a Mini-Beadbeater 16 apparatus (Biospec Products, Inc., Bartlesville, OK) and serially diluted in 10-fold steps. Aliquots (100 μl) of homogenate were plated and incubated for 3 to 7 days at 37°C. Fungal burden data were log10 transformed and evaluated using Kruskal-Wallis tests with Dunn's multiple-comparison test for post hoc analysis (Prism software, v5; GraphPad Software, Inc., San Diego, CA). A P value of ≤0.05 was considered statistically significant.
# C. neoformans strain H99 [2] = assay: Murine cryptococcal meningitis model with ABT, dose-response study; type: in vivo, Cryptococcus neoformans
# Description: A dose-response study was performed with APX2096 and APX2097 to confirm the observed activity. In this study, QD doses of 7.5, 20, and 60 mg/kg were evaluated in conjunction with the administration of ABT. A 60-mg/kg dose QD without ABT was also evaluated as a control.
# FIG 3 Dose-response of APX2096 and APX2097 in a murine model of cryptococcal meningitis in conjunction with ABT administration. ABT at 100 mg/kg was administered orally to male CD-1 mice at 2 h prior to each APX compound dose. Mice were injected with 4.8 × 10^4 CFU C. neoformans strain H99 per mouse via the lateral tail vein at time zero. Treatment with the APX compounds was initiated at 1 h postinfection by i.p. administration and continued for 7 days, with 100-mg/kg ABT being administered orally 2 h prior to each APX compound dose. The correction factors for prodrug potencies versus the potencies of the active moieties were similar enough such that the same factor (1.3) was used for all APX compounds. Fungal burden data were log10 transformed and evaluated using Kruskal-Wallis tests with Dunn's multiple-comparison test for post hoc analysis (Prism software, v5; GraphPad Software, Inc., San Diego, CA). […] A P value of ≤0.05 was considered statistically significant (*, P ≤ 0.05; **, P ≤ 0.01; ***, P ≤ 0.001). The 95% confidence interval (CI) is presented.
# as §2
# [3] = Acute toxicity and survival observed in the CM model with ABT; type: in vivo, mouse; settings: i.p. dosing + ABT; dose then reduced to 60 mg/kg for surviving mice
# Description: as §1, §2
# [4] = 34 mg/kg QD i.p. + ABT 100 mg/kg p.o.
# [5] = 85 mg/kg QD i.p. + ABT 100 mg/kg p.o.
# [6] = QD doses of 7.5, 20 and 60 mg/kg i.p. + ABT
# [7] = QD doses of 7.5, 20 and 60 mg/kg i.p. + ABT, not significant
structure (smiles),measurement,setting,value
CC(=O)N1CCN(c2ccc(OCC3COC(Cn4ccnc4)(c4ccc(Cl)cc4Cl)O3)cc2)CC1 (centres unmarked) [ketoconazole],MIC90,C. neoformans,0.06 µg/mL
Nc1[nH]c(=O)ncc1F [flucytosine],MIC90,C. neoformans,8 µg/mL
Nc1c(-c2cc(Cc3ccc(OCc4ccccc4)cc3)no2)ccc[n+]1COP(=O)([O-])O [APX2097],reduction in brain fungal burden,C. neoformans strain H99 [1]; [4],1.66 log10 CFU/g
same,reduction in lung fungal burden,C. neoformans strain H99 [1]; [4],1.07 log10 CFU/g
same,reduction in brain fungal burden,C. neoformans strain H99 [1]; [5],2.72 log10 CFU/g
same,reduction in lung fungal burden,C. neoformans strain H99 [1]; [5],3.28 log10 CFU/g
same,reduction in brain fungal burden,C. neoformans strain H99 [2]; 60 mg/kg QD i.p. + ABT,1.45 log10 CFU/g
same,reduction in lung fungal burden,C. neoformans strain H99 [2]; 60 mg/kg QD i.p. + ABT,1.55 log10 CFU/g
same,dose-dependent change in brain fungal burden: increase end of range,C. neoformans strain H99 [2]; [6],0.24 log10 CFU/g
same,dose-dependent change in lung fungal burden: increase end of range,C. neoformans strain H99 [2]; [6],1.20 log10 CFU/g
same,dose-dependent change in brain fungal burden: reduction end of range,C. neoformans strain H99 [2]; [7],1.45 log10 CFU/g
same,dose-dependent change in lung fungal burden: reduction end of range,C. neoformans strain H99 [2]; [7],1.55 log10 CFU/g
same,Acute toxicity observed (day of treatment),[3],day 6
CCC(C)n1ncn(-c2ccc(N3CCN(c4ccc(OCC5COC(Cn6cncn6)(c6ccc(Cl)cc6Cl)O5)cc4)CC3)cc2)c1=O (centres unmarked) [itraconazole],MIC90,C. neoformans,0.125 µg/mL
